Consider eleven compounds from ChEMBL document CHEMBL1201862, “PubChem BioAssay data set” (2004).

Some test systems named below: SW-620; DMS-114; EKVX; SNB-19; RPMI-8226; M14; SNB-75; NCI-H23; COLO 205; NCI-H460; NCI-H226; SK-MEL-28; MOLT-4; SR; NCI-H522; SK-MEL-2; A498; T47D; MDA-MB-231; DU-145.
Holding throughout (test): NCI tumour cell line growth inhibition, 48 h

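Protocol summary: plate cells (96-well), add compound at 5 concentrations, incubate 48 h, interpolate endpoints linearly. The concentration for 50% growth inhibition is given as GI50.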 The source made the active and inactive calls. Cut-off read from the data, not from the text of the source: active = GI50 up to about 1.1 µM and inactive = higher.

`Cc1cn(C2CC3C(COCN3O)O2)c(=O)[nH]c1=O` (centres undefined): the GI50 in the test with SW-620, in the test on DMS-114, in the test with EKVX, in the test with SNB-19, with RPMI-8226 and in the test on M14 was > 100 µM (inactive) each time. Moreover, the GI50 in the test with SNB-75 is 97.3 µM (inactive); with NCI-H23 it was > 100 µM (inactive); in the test with COLO 205 it was > 100 µM (inactive); in the test on NCI-H460, > 100 µM (inactive); in the test on NCI-H226 it was > 100 µM (inactive); with SK-MEL-28, > 100 µM (inactive). For the same compound, the GI50 in the test on MOLT-4 and in the test on SR was > 100 µM (inactive) each time.

In the case of `CC1=CC(=O)CCC2(C)C1CC[C@@H]2OC=O` (some centres undefined), the GI50 in the test with SW-620, with DMS-114, in the test on EKVX, in the test with SNB-19, in the test on RPMI-8226 and in the test on M14 was > 100 µM (inactive) each time. The GI50 in the test on SNB-75 is 93.5 µM (inactive); in the test with NCI-H522, > 100 µM (inactive); in the test with SK-MEL-2 it was > 100 µM (inactive); in the test on NCI-H23, > 100 µM (inactive); with COLO 205, > 100 µM (inactive); in the test with NCI-H460, > 100 µM (inactive). For the same compound, the GI50 in the test on NCI-H226, with SK-MEL-28, in the test with MOLT-4 and with SR was > 100 µM (inactive) each time.

Regarding `Cc1cccc(C2SCc3nc4ccccc4n32)c1` (centres undefined), the GI50 with SW-620 was 39.2 µM (inactive); in the test on DMS-114, 10.9 µM (inactive); with EKVX, 18.9 µM (inactive); in the test with RPMI-8226 it was 13.9 µM (inactive); in the test with M14 it was 26.7 µM (inactive); with SNB-75, 2 µM (inactive). Besides, the GI50 in the test with NCI-H522 is 17.7 µM (inactive); with SK-MEL-2 it was 18.5 µM (inactive); in the test with NCI-H23 it was > 10 µM (inactive); in the test on COLO 205 it was > 10 µM (inactive); with NCI-H460, 27.7 µM (inactive); in the test with NCI-H226, 24.1 µM (inactive). The GI50 in the test with SK-MEL-28 is 26.1 µM (inactive); in the test with MOLT-4, 25.9 µM (inactive); with SR, 17.1 µM (inactive).

Consider `CCCCCCCCCCCC[C@@H](O)[C@H]1CCC([C@H](O)CCCCC(=O)CCCCCCCC2=C[C@H](C)OC2=O)O1` (some centres undefined), for which the GI50 with SW-620 was > 29.1 µM (inactive); in the test with A498, 26.2 µM (inactive); in the test with EKVX it was 14.1 µM (inactive); in the test on SNB-19, > 28.2 µM (inactive); in the test with RPMI-8226 it was 2.5 µM (inactive); with T47D it was 15.7 µM (inactive). The GI50 is 15 µM (inactive) in the test with M14; > 37.9 µM (inactive) with SNB-75; > 41.7 µM (inactive) in the test on MDA-MB-231; > 50 µM (inactive) in the test with DU-145; 15.4 µM (inactive) in the test with NCI-H522; > 26.1 µM (inactive) in the test on SK-MEL-2. The GI50 with NCI-H23 was 0.0957 µM (active); with COLO 205 it was 12.5 µM (inactive); in the test on NCI-H460, 2.26 µM (inactive); in the test with NCI-H226 it was 15.8 µM (inactive); in the test with SK-MEL-28 it was 19.2 µM (inactive); with MOLT-4, 2.62 µM (inactive). Besides, the GI50 in the test on SR is 0.0773 µM (active).

Take `C[S+](C)CC(=O)c1ccc2c(c1)Sc1ccccc1O2`: the GI50 in the test with SW-620 is 2.33 µM (inactive); in the test with A498, 8.41 µM (inactive); in the test on EKVX, 3.44 µM (inactive); in the test on SNB-19 it was 5.51 µM (inactive); in the test with RPMI-8226, 2.59 µM (inactive); in the test with T47D, 9.57 µM (inactive). The GI50 in the test with M14 is 0.755 µM (active); in the test with SNB-75, 2.7 µM (inactive); in the test with MDA-MB-231, 7.06 µM (inactive); with DU-145 it was 4.1 µM (inactive); in the test on NCI-H522 it was 1.09 µM (active); in the test with SK-MEL-2 it was 3.4 µM (inactive). The GI50 in the test with NCI-H23 is 3.49 µM (inactive); with COLO 205 it was 1.02 µM (active); in the test on NCI-H460, 5.3 µM (inactive); in the test with NCI-H226, 5.16 µM (inactive); with SK-MEL-28, 7.89 µM (inactive); with MOLT-4, 3.29 µM (inactive). Further, in the test with SR, the GI50 was 1.43 µM (inactive).

Turning to `CC1OC(OC2C(OC(=O)[C@]34CCC(C)(C)CC3C3=CCC5[C@@]6(C)C[C@H](O)[C@H](OC7OC(CO)C(O)C(O)C7N)[C@@](C)(C(=O)O)C6CC[C@@]5(C)C3(C)CC4)OCC(O)C2O)C(O)C(O)C1OC1OCC(O)C(O)C1O` (some centres undefined), the GI50 with SW-620, in the test on A498, with DMS-114, with EKVX, in the test with SNB-19 and in the test on RPMI-8226 was > 100 µM (inactive) throughout. The GI50 in the test with SNB-75, in the test on NCI-H522, with SK-MEL-2, with NCI-H23, in the test with COLO 205 and with NCI-H460 was > 100 µM (inactive) each time. Besides, the GI50 in the test on NCI-H226, in the test with SK-MEL-28 and in the test on MOLT-4 was > 100 µM (inactive) in each case.

Take `Clc1ccc(OCc2nnc3sc(-c4ccc(-c5ccc(Cl)cc5Cl)o4)nn23)cc1`: the GI50 with SW-620, with A498, in the test with EKVX, in the test on SNB-19, with RPMI-8226 and in the test on T47D was > 100 µM (inactive) throughout. The GI50 in the test with M14 is > 100 µM (inactive); with SNB-75 it was 7.85 µM (inactive); in the test on MDA-MB-231, > 100 µM (inactive); in the test on DU-145 it was > 100 µM (inactive); with NCI-H522, > 100 µM (inactive); in the test on SK-MEL-2 it was 50.6 µM (inactive). In addition, the GI50 in the test with NCI-H23, in the test with COLO 205, in the test on NCI-H460, with NCI-H226, in the test with SK-MEL-28 and in the test with MOLT-4 was > 100 µM (inactive) each time. In addition, the GI50 in the test with SR is > 100 µM (inactive).

Consider `CN(C)C(=O)Oc1ccc(-c2cn3cc(NC(=O)c4ccccc4)ccc3n2)cc1`, for which the GI50 in the test with SW-620 is 48.5 µM (inactive); in the test on A498, > 100 µM (inactive); with EKVX it was > 100 µM (inactive); in the test with SNB-19 it was 50.8 µM (inactive); in the test with RPMI-8226, 19.1 µM (inactive); in the test with T47D, 21.6 µM (inactive). In addition, the GI50 in the test on M14 is > 100 µM (inactive); with SNB-75, 86.1 µM (inactive); with MDA-MB-231, > 100 µM (inactive); in the test with DU-145, > 100 µM (inactive); with NCI-H522, 26.4 µM (inactive); in the test with SK-MEL-2, > 100 µM (inactive). Besides, the GI50 in the test with NCI-H23 is > 100 µM (inactive); with COLO 205 it was 14.3 µM (inactive); in the test on NCI-H460 it was 73.3 µM (inactive); with NCI-H226, > 100 µM (inactive); in the test with SK-MEL-28, > 100 µM (inactive); in the test with MOLT-4, 17.2 µM (inactive). For the same compound, the GI50 with SR is 29.3 µM (inactive).

In the case of `CCC1(Cl)C(=O)NC(=O)N(C2CC(O)C(CO)O2)C1N=[N+]=[N-]` (centres undefined), the GI50 with SW-620 is > 100 µM (inactive); in the test with A498, > 100 µM (inactive); with DMS-114, 80.4 µM (inactive); with EKVX, > 100 µM (inactive); in the test with SNB-19, > 100 µM (inactive); in the test with RPMI-8226 it was > 100 µM (inactive). The GI50 was > 100 µM (inactive) with M14; > 100 µM (inactive) in the test with SNB-75; > 100 µM (inactive) in the test on NCI-H522; > 100 µM (inactive) in the test with SK-MEL-2; 65.3 µM (inactive) in the test with NCI-H23; > 100 µM (inactive) in the test on COLO 205. In addition, the GI50 in the test with NCI-H460, with SK-MEL-28 and in the test on MOLT-4 was > 100 µM (inactive) each time.

Turning to `CC(=O)c1ccc(Nc2c3c(nc4ccccc24)CCCC3)cc1`, the GI50 was 16.9 µM (inactive) in the test with SW-620; > 31.8 µM (inactive) in the test with A498; 28 µM (inactive) in the test on EKVX; 20.2 µM (inactive) in the test on SNB-19; 27.6 µM (inactive) in the test on RPMI-8226; 10.1 µM (inactive) in the test with T47D. The GI50 in the test on M14 was 12.6 µM (inactive); with SNB-75 it was 4.12 µM (inactive); in the test on MDA-MB-231, 19.6 µM (inactive); in the test with DU-145, 20 µM (inactive); in the test with NCI-H522, 3.85 µM (inactive); in the test on SK-MEL-2, 24 µM (inactive). In addition, the GI50 in the test on NCI-H23 was 11.3 µM (inactive); in the test with COLO 205, 11.7 µM (inactive); in the test on NCI-H460, 17.5 µM (inactive); in the test on NCI-H226, 14 µM (inactive); in the test on SK-MEL-28, 50.7 µM (inactive); in the test with MOLT-4, 9.59 µM (inactive). Moreover, the GI50 with SR was 2.47 µM (inactive).

As for `CO[C@H]1[C@@H](O)[C@@H](C)O[C@@H](O[C@H]2CC[C@@]3(C)[C@H](CC[C@@H]4[C@@H]3CC[C@]3(C)[C@@H](C5=CC(=O)OC5)[C@@H](OC(C)=O)C[C@]43O)C2)[C@@H]1O` [NERITALOSIDE], the GI50 was 0.111 µM (active) in the test on SW-620; 0.281 µM (active) in the test with A498; 0.0156 µM (active) in the test on EKVX; 0.144 µM (active) with SNB-19; 0.17 µM (active) in the test on RPMI-8226; 0.162 µM (active) in the test with T47D. In addition, the GI50 with M14 was 0.0904 µM (active); in the test on SNB-75 it was 0.112 µM (active); in the test on MDA-MB-231, 0.198 µM (active); with DU-145, 0.0176 µM (active); in the test on NCI-H522, 0.0142 µM (active); in the test on SK-MEL-2, 0.129 µM (active). For the same compound, the GI50 was 0.027 µM (active) in the test with NCI-H23; 0.156 µM (active) in the test on COLO 205; 0.0165 µM (active) in the test with NCI-H460; 0.173 µM (active) in the test on NCI-H226; 0.291 µM (active) in the test on SK-MEL-28; 0.0211 µM (active) in the test with MOLT-4. In the test on SR, the GI50 was 0.0533 µM (active).
